In article PMC5405074, “Receptor-Mediated Melanoma Targeting with Radiolabeled α-Melanocyte-Stimulating Hormone: Relevance of the Net Charge of the Ligand” (Frontiers in Endocrinology, 2017):
Read-outs that look alike come from different tables or passages of the source.

Assays:
[1] = Biodistribution of ^111In-labeled peptides in B16-F1 melanoma-bearing mice; type: in vivo, mouse (B6D2F1); settings: female, iv, total radioactivity, ^111In-labeled peptide, 185 kBq i.v., mean ± SEM of three experiments, n = 5 animals each
Method: About 5 × 10^5 B16-F1 cells were implanted subcutaneously to female B6D2F1 mice (C57BL/6 × DBA/2F1 hybrids; breeding pairs obtained from IFFA-CREDO, France). Seven days later, 185 kBq of ^111In-labeled ligand in 200 µL PBS/0.1% BSA were injected intravenously into the lateral tail vein of each mouse. Control mice were injected with a mixture of the tracer and 50 µg α-MSH to determine the non-specific uptake of radioligand. The animals were sacrificed 4, 24, and 48 h postinjection, dissected, and the tissues of interest collected, rinsed of excess blood, and weighed. The radioactivity emitted by each organ was measured in a γ-counter to determine the tissue uptake as percentage of the injected dose (ID) per gram of tissue. The total of injected radioactivity per animal was determined by extrapolation from the counts of a standard collected from the injection solution for each animal. Urine samples were collected at 10, 15, and 20 min and 4 h after injection and kept frozen at −80°C until use. Urine (1 vol) was mixed with methanol (2 vol) to precipitate proteins, and the supernatant was analyzed by RP-HPLC/γ-detection, as described in Ref. ([12]).
Results are expressed as means ± SEM, unless otherwise stated. The statistical evaluation of data was performed using the one- or two-way ANOVA test. When significant overall effects were obtained by ANOVA, multiple comparisons were made with the Bonferroni correction. P < 0.05 was considered statistically significant. The area under the curve (AUC) was calculated with the GraphPad Prism 6 software for the indicated period of time, using the mean tissue uptake value at each time point.

MC1R (HBL cells) = biological target: T1, MC1R (HBL cells) (Homo sapiens, UniProt Q01726); assay: Competition binding assay with [^125I]-NDP-MSH, human HBL melanoma cells; settings: HBL cells, [^125I]-NDP-MSH competition, 37°C, 2 h; n = 3–20; ± SEM; ^c = P < 0.05 vs. DOTA-NAP-amide; read-out: Receptor-binding potency IC50
T1 construct: endogenous in cells; host or cells: human HBL melanoma cell line
Method: (§1) Triplicates of 100-µL volumes of B16-F1 or HBL cell suspensions adjusted to 4 × 10^6/mL were incubated in 96-well U-bottom microplates (Falcon 3077). The binding medium consisted of MEM with Earle’s salts, 0.2% BSA, and 0.3 mM 1,10-phenanthroline. This binding medium was called mouse binding medium (MBM). Triplicates of competitor peptide solution (50 µL) yielding final concentrations ranging from 1 × 10^−6 to 1 × 10^−12 M were added. [^125I]NDP-MSH (50,000 cpm) in 50 µL was finally added to each well. The plates were incubated at 15°C for 3 h for B16-F1 cells and at 37°C for 2 h for HBL cells. The incubation was stopped by covering the plates with ice for 10 min. A cell harvester was used to collect cell-bound radioactivity on filters (Packard Unifilter-96 GF/B). The collected radioactivity was counted on a TopCount scintillation counter (Packard) after addition of 50 µL Microscint-20 scintillation cocktail (Perkin Elmer). The IC50 values were calculated with the Prism 6 software (GraphPad Software Inc., San Diego CA, USA).
(§2) The binding affinity of the peptides to MC1R was assessed by competition binding assays using [^125I]-NDP-MSH as radioligand and both murine B16-F1 and human HBL cells.

MC1R (B16-F1 cells) = biological target: T2, MC1R (B16-F1 cells) (Mus musculus, UniProt Q01727); assay: Competition binding assay with [^125I]-NDP-MSH, mouse B16-F1 melanoma cells; settings: B16-F1 cells, [^125I]-NDP-MSH competition, 15°C, 3 h; n = 3–20; ± SEM; ^c = P < 0.05 vs. DOTA-NAP-amide; read-out: Receptor-binding potency IC50
T2 construct: endogenous in cells; host or cells: mouse B16-F1 melanoma cells
Method: as §1, §2

[2] = B6D2F1 (C57BL/6 × DBA/2F1 hybrids), mouse, blood, read-out: Blood uptake
[3] = B6D2F1 (C57BL/6 × DBA/2F1 hybrids), mouse, muscle, read-out: Muscle uptake
[4] = B6D2F1 (C57BL/6 × DBA/2F1 hybrids), mouse, tumor, read-out: Tumor uptake
[5] = B6D2F1, mouse, bone, read-out: Bone uptake
[6] = B6D2F1, mouse, heart, read-out: Heart uptake
[7] = B6D2F1, mouse, kidney, read-out: Kidney uptake
[8] = B6D2F1, mouse, liver, read-out: Liver uptake
[9] = B6D2F1, mouse, lung, read-out: Lung uptake
[10] = B6D2F1, mouse, pancreas, read-out: Pancreas uptake
[11] = B6D2F1, mouse, small intestines, read-out: Small intestines uptake
[12] = B6D2F1, mouse, spleen, read-out: Spleen uptake
[13] = B6D2F1, mouse, stomach, read-out: Stomach uptake

T2 sequence (Q01727 whole entry): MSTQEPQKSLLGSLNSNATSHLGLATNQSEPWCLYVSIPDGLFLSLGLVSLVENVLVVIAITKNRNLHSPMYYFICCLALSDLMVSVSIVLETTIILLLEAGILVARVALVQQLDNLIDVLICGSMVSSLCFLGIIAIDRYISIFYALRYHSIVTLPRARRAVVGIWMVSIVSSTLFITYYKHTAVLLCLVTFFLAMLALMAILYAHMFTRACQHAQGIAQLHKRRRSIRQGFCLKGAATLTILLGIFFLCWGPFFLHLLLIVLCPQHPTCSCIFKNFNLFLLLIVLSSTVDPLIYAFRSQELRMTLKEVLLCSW
T1 sequence (Q01726 whole entry): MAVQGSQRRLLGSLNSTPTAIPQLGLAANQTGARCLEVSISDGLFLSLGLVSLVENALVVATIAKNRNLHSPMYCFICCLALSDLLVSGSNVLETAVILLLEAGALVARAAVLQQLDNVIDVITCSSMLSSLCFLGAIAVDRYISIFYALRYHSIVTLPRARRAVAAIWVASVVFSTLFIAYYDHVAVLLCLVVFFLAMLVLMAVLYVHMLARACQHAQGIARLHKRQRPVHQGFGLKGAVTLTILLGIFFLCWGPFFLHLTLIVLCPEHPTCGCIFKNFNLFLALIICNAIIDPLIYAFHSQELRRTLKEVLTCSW

CCCC[C@H](NC(C)=O)C(=O)N[C@@H](CC(=O)O)C(=O)N[C@@H](Cc1c[nH]cn1)C(=O)N[C@H](Cc1ccccc1)C(=O)N[C@@H](CCCNC(=N)N)C(=O)N[C@@H](Cc1c[nH]c2ccccc12)C(=O)NCC(=O)N[C@@H](CCCCNC(=O)CN1CCN(CC(=O)O)CCN(CC(=O)O)CCN(CC(=O)O)CC1)C(N)=O [DOTA-NAP-amide, [Ac-Nle^4,Asp^5,D-Phe^7,Lys^11(DOTA)]-α-MSH4-11, reference compound]
tissue uptake at 4 h [1, 2]: 0.09 ± 0.02 %ID/g
tissue uptake at 24 h [1, 2]: 0.02 %ID/g
tissue uptake at 48 h ([1]; B6D2F1 (C57BL/6 × DBA/2F1 hybrids), mouse, bone, read-out: Bone uptake): 0.05 ± 0.01 %ID/g
tissue uptake at 4 h [1, 3]: 0.05 ± 0.01 %ID/g
tissue uptake at 24 h [1, 3]: 0.02 %ID/g
tissue uptake at 48 h [1, 3]: 0.01 %ID/g
tissue uptake at 24 h [1, 4]: 2.32 ± 0.15 %ID/g
tissue uptake at 48 h [1, 4]: 1.41 ± 0.12 %ID/g
tissue uptake at 4 h [1, 5]: 0.11 ± 0.02 %ID/g
tissue uptake at 24 h [1, 5]: 0.14 ± 0.02 %ID/g
tissue uptake at 4 h [1, 6]: 0.05 ± 0.01 %ID/g
tissue uptake at 24 h [1, 6]: 0.03 %ID/g
tissue uptake at 48 h [1, 6]: 0.01 %ID/g
tissue uptake at 24 h [1, 7]: 2.41 ± 0.2 %ID/g
tissue uptake at 48 h [1, 7]: 1.55 ± 0.07 %ID/g
tissue uptake at 4 h [1, 8]: 0.34 ± 0.05 %ID/g
tissue uptake at 24 h [1, 8]: 0.31 ± 0.02 %ID/g
tissue uptake at 48 h [1, 8]: 0.27 ± 0.07 %ID/g
tissue uptake at 4 h [1, 9]: 0.08 ± 0.01 %ID/g
tissue uptake at 24 h [1, 9]: 0.05 ± 0.01 %ID/g
tissue uptake at 48 h [1, 9]: 0.03 %ID/g
tissue uptake at 4 h [1, 10]: 0.04 %ID/g
tissue uptake at 24 h [1, 10]: 0.03 %ID/g
tissue uptake at 48 h [1, 10]: 0.02 %ID/g
tissue uptake at 4 h [1, 11]: 0.07 ± 0.01 %ID/g
tissue uptake at 24 h [1, 11]: 0.08 ± 0.01 %ID/g
tissue uptake at 48 h [1, 11]: 0.05 ± 0.01 %ID/g
tissue uptake at 4 h [1, 12]: 0.14 ± 0.01 %ID/g
tissue uptake at 24 h [1, 12]: 0.11 ± 0.01 %ID/g
tissue uptake at 48 h [1, 12]: 0.1 ± 0.01 %ID/g
tissue uptake at 4 h [1, 13]: 0.09 ± 0.01 %ID/g
tissue uptake at 24 h [1, 13]: 0.12 ± 0.02 %ID/g
tissue uptake at 48 h [1, 13]: 0.11 ± 0.05 %ID/g
IC50 (MC1R (HBL cells)): 3.09 ± 1.11 nM
IC50 (MC1R (B16-F1 cells)): 1.38 ± 0.35 nM
